Experimental data reported in publication PMC11198849, “Expression and purification of human neutrophil proteinase 3 from insect cells and characterization of ligand binding” (PLOS ONE, 2024).
Where “and” joins values, the source holds several entries; their conditions need not be identical. Identical values can stand only once. Like-named read-outs stand apart in the source and are kept apart here.

How the values were obtained:
[1] = molecular target: T1, hNE (Homo sapiens, UniProt P08246); assay: Fluorescence-based enzymatic activity assay with hNE (MeOSuc-AAPV-AMC substrate); assay type: biochemical; details: for %Relative activity of enzyme: hNE, Rep1-Rep3
T1 construct: Enzymes purified from human neutrophiles (hPR3 and hNE); purchased Athens Research and Technology; host or cells: human neutrophils
T1 sequence (P08246 30-247 limits assumed): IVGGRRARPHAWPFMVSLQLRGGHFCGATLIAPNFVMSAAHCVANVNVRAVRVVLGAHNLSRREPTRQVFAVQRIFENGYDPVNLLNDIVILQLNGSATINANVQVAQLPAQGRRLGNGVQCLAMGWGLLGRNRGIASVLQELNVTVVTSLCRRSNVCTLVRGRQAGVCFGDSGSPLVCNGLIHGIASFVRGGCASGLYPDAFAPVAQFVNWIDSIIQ
Description: The reaction was started by adding the fluorogenic substrate (MeOSuc-AAPV-AMC) at a final concentration of 5 μM. The fluorescent signal (excitation filter 360, emission filter 460) was read as described above for PR3.
(§1) Data were fitted using nonlinear regression analysis (GraphPad Prism v.9) to determine the IC50 values.

[2] = molecular target: T2, rPR3 (Homo sapiens, UniProt P24158); assay: SPR binding assay on biotinylated rPR3; details: for SPR binding behaviour towards rPR3 (in words): sensorgrams Fig 5
T2 construct: TEV cleavage site (C); 6x His-tag (C); made in house; host or cells: Spodoptera frugiperda Sf9 (baculovirus), secreted
T2 sequence (P24158 28-248 limits assumed): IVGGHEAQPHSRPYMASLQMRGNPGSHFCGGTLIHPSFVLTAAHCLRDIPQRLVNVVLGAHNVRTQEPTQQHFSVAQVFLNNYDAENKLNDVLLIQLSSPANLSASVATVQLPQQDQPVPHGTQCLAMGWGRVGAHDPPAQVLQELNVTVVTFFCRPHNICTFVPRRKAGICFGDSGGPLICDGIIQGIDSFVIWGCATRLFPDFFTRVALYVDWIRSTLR

[3] = molecular target: T3, hPR3 (Homo sapiens, UniProt P24158); assay: Fluorescence-based enzymatic activity assay with hPR3 (FRET peptide Abz-VADnVADYQ-EDDnp); assay type: biochemical
T3 construct: Enzymes purified from human neutrophiles (hPR3 and hNE); purchased Athens Research and Technology; host or cells: human neutrophils
T3 sequence (P24158 28-248 limits assumed): T2 sequence (P24158 28-248 limits assumed)
Description: (§2) The reaction was started by adding the FRET peptide (Abz-VADnVADYQ-EDDnp) at a final concentration of 5 μM. The fluorescent signal (excitation filter 320, emission filter 420) was read every 30 s for 30 min at 30°C with a fluorescent plate reader (Tecan Spark) and the enzymatic activity was measured from the initial linear portion of the slope (fluorescent signal/min) of the time-course curve of reaction progress.
as §1

[4] = molecular target: T2, rPR3; assay: Fluorescence-based enzymatic activity assay with rPR3 (FRET peptide Abz-VADnVADYQ-EDDnp); assay type: biochemical
Description: as §2, §1

[5] = molecular target: α1-antitrypsin (Homo sapiens) (UniProt P01009); details: cited from earlier work
Chain of α1-antitrypsin (Homo sapiens) (P01009 25-418): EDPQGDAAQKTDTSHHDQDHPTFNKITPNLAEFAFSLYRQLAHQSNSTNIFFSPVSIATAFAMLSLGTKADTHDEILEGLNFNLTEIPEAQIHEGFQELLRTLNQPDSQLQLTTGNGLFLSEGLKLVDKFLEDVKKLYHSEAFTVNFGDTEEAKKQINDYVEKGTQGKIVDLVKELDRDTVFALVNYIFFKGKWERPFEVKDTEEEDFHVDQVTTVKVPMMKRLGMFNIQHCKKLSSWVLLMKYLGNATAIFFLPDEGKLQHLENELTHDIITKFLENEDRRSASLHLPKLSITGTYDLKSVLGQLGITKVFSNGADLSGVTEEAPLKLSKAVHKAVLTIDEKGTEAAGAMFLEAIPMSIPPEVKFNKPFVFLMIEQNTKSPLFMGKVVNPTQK

[6] = system: PR3; details: cited from earlier work
[7] = affinity data, single replicates Rep1-Rep3, read-out: Steady state KD
[8] = steady state, average and SD of triplicates, read-out: Steady state KD
[9] = IC50 replicates Rep1-Rep3, read-out: hPR3 IC50
[10] = mean ± SD (n = 3), read-out: IC50 hPR3
[11] = IC50 replicates Rep1-Rep3, read-out: rPR3 IC50
[12] = mean ± SD (n = 3), read-out: IC50 rPR3

Molecule | SPR binding behaviour towards rPR3 (in words) [2] | IC50 [3, 9] | IC50 [3, 10] [nM] | IC50 [4, 11] | IC50 [4, 12] [nM] | Kd [2, 7] | Kd [2, 8] [M] | further results
Cc1c(-c2ccnn2C)cc(C(=O)NCc2ccc(S(C)(=O)=O)cn2)c(=O)n1-c1cccc(C(F)(F)F)c1 [Alvelestat] | weak rPR3 binder with fast association and dissociation rates |  |  |  |  | 1.95e-05 M and 1.26e-05 M and 8.36e-06 M | 1.35e-05 ± 5.6e-06 | IC50 ([1]; IC50 replicates Rep1-Rep3): 10.7 nM and 12.1 nM and 11.6 nM; %Relative activity of enzyme ([1]; inhibitor 1.95 nM): 78.8834% and 84.934% and 85.1448%; %Relative activity of enzyme ([1]; inhibitor 3.9 nM): 78.3028% and 76.8727%; %Relative activity of enzyme ([1]; inhibitor 7.8 nM): 61.4733% and 58.7939% and 60.1294%; %Relative activity of enzyme ([1]; inhibitor 15.6 nM): 40.7947% and 40.9606% and 39.7611%; %Relative activity of enzyme ([1]; inhibitor 31.25 nM): 27.1224% and 29.7155% and 27.7611%; %Relative activity of enzyme ([1]; inhibitor 62.5 nM): 15.0503% and 20.2323% and 16.5108%; %Relative activity of enzyme ([1]; inhibitor 125 nM): 9.7027% and 8.522% and 9.4691%
CC1=C(C#N)[C@@H](c2ccc(C#N)cc2S(C)(=O)=O)N(C)C(=O)N1c1cccc(C(F)(F)F)c1 [BAY-85-8501] |  | 24.3 nM and 24.7 nM and 31.5 nM | 27 ± 4 | 67.7 nM and 55 nM and 53.6 nM | 59 ± 8 | 2.6e-08 M and 4.4e-08 M and 1.6e-08 M | 3e-08 ± 1e-08 | Ki ([4]; Cheng-Prusoff equation, literature Km 27.4 μM, read-out: Ki derived from the IC50 value): 50 nM; Kd ([2]; 1:1 binding kinetic model, average and SD of triplicates, read-out: KD): 1.4e-08 M; Kd ([2]; affinity data, average of Rep1-Rep3, read-out: Steady state KD (M), Average): 2.87e-08 M; Kd ([2]; average of Rep1-Rep3, read-out: KD (M), kinetics 1:1, Average): 1.37e-08 M; Kd ([2]; single replicates Rep1-Rep3, read-out: KD (M), kinetics 1:1): 1.37e-08 M and 1.09e-08 M and 1.66e-08 M
Proteinase 3 (from UniProt P24158) |  |  |  |  |  |  |  | Ki [5]: 38 nM

Now from value to molecule, other results behind:

SPR binding behaviour towards rPR3 (in words) [2] | IC50 [3, 9] | IC50 [3, 10] [nM] | IC50 [4, 11] | IC50 [4, 12] [nM] | Molecule | Kd [2, 7] | Kd [2, 8] [M] | further results
hardly dissociated | 33.6 nM and 34.1 nM and 30.4 nM | 33 ± 2 | 35.8 nM and 29.5 nM and 30.1 nM | 32 ± 4 | CC(C)(C)C(=O)Oc1ccc(S(=O)(=O)Nc2ccccc2C(=O)NCC(=O)O)cc1 [Sivelestat] |  |  | 
hardly dissociated |  | 15 ± 1 |  | 14 ± 1 | α1-antitrypsin: endogenous serine protease inhibitor, also denoted SERPIN; purchased from Sigma-Aldrich |  |  | IC50 ([3]; IC50 replicates Rep1-Rep3, listed as a1-antitrypsin, read-out: hPR3 IC50): 15.8 nM and 15.5 nM and 14.6 nM; IC50 ([4]; IC50 replicates Rep1-Rep3, listed as a1-antitrypsin, read-out: rPR3 IC50): 15.3 nM and 14.7 nM and 13.5 nM; first-order rate constant k2 (EI* to irreversible EI) [6]: 0.04 s⁻¹
